In PubChem BioAssay (NCI):
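Compound exposure: 48 hours, 5 concentrations, 96-well plates. The concentration for full growth arrest is given as TGI.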

Experiments:
Assay in all cases: NCI tumour cell line growth inhibition, 48 h
SF-268 CNS = tested on: SF-268 CNS
SF-295 CNS = tested on: SF-295 CNS
OVCAR-5 ovarian = tested on: OVCAR-5 ovarian
CAKI-1 renal = tested on: CAKI-1 renal
HCT-15 colon = tested on: HCT-15 colon
MALME-3M melanoma = tested on: MALME-3M melanoma
U251 CNS = tested on: U251 CNS
HOP-62 NSCLC = tested on: HOP-62 NSCLC
CCRF-CEM leukemia = tested on: CCRF-CEM leukemia
A498 renal = tested on: A498 renal

Compound	TGI (SF-268 CNS) [µM]	TGI (SF-295 CNS) [µM]	TGI (OVCAR-5 ovarian) [µM]	TGI (CAKI-1 renal) [µM]	TGI (HCT-15 colon) [µM]	TGI (MALME-3M melanoma) [µM]	TGI (U251 CNS) [µM]	TGI (HOP-62 NSCLC) [µM]	TGI (CCRF-CEM leukemia) [µM]	TGI (A498 renal) [µM]
CCCCCC[C@H]([C@H](C)O)n1cnc2c(N)ncnc21	> 100	> 100	> 100	> 100	> 100	> 100	> 100	> 100	> 100	–
COc1ccccc1NC(=O)C(=O)C(C(=O)c1ccccc1F)C1OC(=O)c2ccccc21 (stereo not drawn)	> 100	> 100	> 100	86.7	69.2	–	31.1	> 100	67	> 100
CC1=C(CO)C(=O)OC(C(C)C2CCC3C4CC5OC56C(O)C(N5CC5)=CC(=O)C6(C)C4CCC23C)C1 (stereo not drawn)	15.5	33.7	31.2	–	12.9	25.1	15.1	40.7	7.45	16.3
Cc1nc(NC(C)(CO)CO)nc(N/N=C/c2ccc(Cl)cc2)c1C(=O)Nc1ccc(Cl)cc1	> 100	> 100	> 100	> 100	> 100	> 100	> 100	> 100	> 100	–
CC(=O)n1[nH]c(=O)n(-c2ccc(Cl)cc2)c1=O	> 100	> 100	> 100	> 100	> 100	> 100	> 100	> 100	> 100	–
CCC1(O)CC(CCN(Cc2ccccc2)C(=O)OCc2ccccc2)C(OCc2ccccc2)C1O (stereo not drawn)	–	28.2	41.2	65.7	31.7	–	> 100	29.6	81.7	–
CCOC(=O)c1c(N)sc2c1C(C(=O)OCC)CCCC2 (stereo not drawn)	–	–	> 100	–	> 100	> 100	> 100	> 100	–	75.8
O=C(O)C(Cc1ccccc1)NCc1c(O)ccc2c(-c3ccccc3)cc(=O)oc12 (stereo not drawn)	> 100	> 100	> 100	> 100	> 100	> 100	> 100	> 100	> 100	–
O=C1NC(O)c2cc3ccccc3cc2O1 (stereo not drawn)	> 100	> 100	> 100	–	> 100	> 100	87.3	> 100	> 100	–
O=[N+]([O-])c1ccc(-n2nc3ccc4nonc4c3n2)cc1	> 100	87.9	> 100	73.7	> 100	89.2	> 100	44.7	> 100	–
O=c1[nH]c(=O)n(COC(CO)CO)cc1-c1ccccc1	> 100	> 100	> 100	> 100	> 100	> 100	> 100	> 100	> 100	–
CCOC(=O)c1c(-c2ccc(OC)cc2)ccn1C	> 10	> 10	> 10	> 10	> 10	> 10	> 10	> 10	> 10	–
CC(C)(C)C(=O)Nc1c(C=O)ccc2[nH]cnc12	> 100	> 100	> 100	> 100	> 100	–	> 100	> 100	> 100	> 100
CCOP(=O)(/C=C/n1cc(C)c(=O)[nH]c1=O)OCC	> 100	> 100	> 100	> 100	> 100	–	> 100	> 100	> 100	> 100
CC1=C(C)C(=O)C(C2=CC(=O)c3ccccc3C2=O)=C(C2=CC(=O)c3ccccc3C2=O)C1=O	> 55.1	> 55.2	> 100	8.86	> 100	4.33	> 45.3	33.4	–	50.8
CCOc1ccc2nc(NC(=O)C(=O)C(C(=O)c3ccccc3F)C3OC(=O)c4ccccc43)sc2c1 (stereo not drawn)	82	–	–	75.3	38.2	–	23.8	> 100	40.1	> 100
C=C(C)C1CC(=O)C(C)=C(O)C1 (stereo not drawn)	> 100	> 100	> 100	> 100	> 100	> 100	> 100	> 100	> 100	–

Compound	TGI (SF-268 CNS) [µM]	TGI (SF-295 CNS) [µM]	TGI (OVCAR-5 ovarian) [µM]	TGI (CAKI-1 renal) [µM]	TGI (HCT-15 colon) [µM]	TGI (MALME-3M melanoma) [µM]	TGI (U251 CNS) [µM]	TGI (HOP-62 NSCLC) [µM]	TGI (CCRF-CEM leukemia) [µM]	TGI (A498 renal) [µM]
CN(CCCCCl)P(=O)(OCc1ccc([N+](=O)[O-])o1)OCC1OC(n2ccc(N)nc2=O)C(O)C1O (stereo not drawn)	> 100	57.7	> 100	> 100	> 100	8.36	11.1	66.8	–	–
COC(=O)C1=C(CCCCO[Si](C)(C)C(C)(C)C)NC(=O)N2[C@H](CCOCc3ccccc3)CC[C@@H]12	> 100	> 100	> 100	> 100	> 100	> 100	> 100	> 100	–	> 100
O=S(=O)(Nc1nc2ccccc2nc1N1CCCCCC1)c1ccccc1	> 100	70	> 100	> 100	45	> 100	48.8	84.5	> 100	–
COc1nc(Cl)nc(N[C@H](C)c2c3ccccc3cc3ccccc23)n1	39.7	31	31.1	25.9	27	–	31.9	31.5	29.6	–
Cc1cn(CCCCCCOC(=O)NC(CCCNC(N)=O)C(=O)O)c(=O)[nH]c1=O (stereo not drawn)	> 100	> 100	> 100	> 100	> 100	–	> 100	> 100	> 100	> 100
Oc1ccc(C(O)C2CCCCN2)cc1O (stereo not drawn)	> 100	> 100	> 100	> 100	> 100	> 100	> 100	> 100	–	> 100
Nc1c(C(=O)c2ccc(Cl)c(Cl)c2)[nH]c(NCc2ccccc2)c1C(=S)Nc1ccccc1	31.5	15	28.2	32.2	6.27	11.7	15.7	34.7	–	31.5
COc1ccc(CCNC(=O)Cc2ccccc2CO)cc1OC	> 100	> 100	> 100	> 100	> 100	–	> 100	> 100	> 100	> 100
COc1ccc(N2C(=O)C3c4[nH]c5c(C)cccc5c4C4CCC(C(C)C)CC4C3C2=O)cc1 (stereo not drawn)	22	38.3	29.7	37.6	40.6	36.8	29.9	22.7	–	32.8
COC1/C=C/C(C)C(O)CC(O)/C=C/C(C)C(C(C)C(OC)C(C)CCC(=O)C(C)C(C/C=C/N(C)C=O)OC)OC(=O)/C=C/C=C(\C)CC(OC)CC2=CC(=O)O[C@@H](C(C)C(OC)C1)[C@H]2O (stereo partly drawn)	0.137	< 0.005	0.228	0.0192	0.0893	–	0.102	0.0257	2.98	0.0164
Cn1c(=O)c2c(nc3[nH]c(=O)c(Br)cn32)n(C)c1=O	> 100	> 100	> 100	> 100	> 100	–	> 100	> 100	> 100	> 100
O=C1[C@@H]2[C@@H](CN3CN(c4ccccc4)N=C(c4ccccc4)[C@@]23c2ccccc2)C(=O)N1c1ccccc1	47.1	30.2	10.4	2.45	5.25	3.57	> 65.6	30	–	36.6
CCc1nc(N)c2nc(-c3cccs3)oc2n1	> 100	> 100	> 100	> 100	> 100	–	> 100	> 100	> 100	–
O=C(CNc1ccccc1C(=O)O)Nn1cnc2ccc(S(=O)(=O)Nc3ccccc3C(=O)O)cc2c1=O	> 100	> 100	> 100	> 100	> 100	> 100	> 100	> 100	> 100	–
COC(=O)[C@]1(c2cc3ccccc3n2S(=O)(=O)c2ccccc2)CC2CN(C(=O)OCc3ccccc3)C1C1OC(C)(C)OC21 (stereo partly drawn)	–	> 100	> 100	> 100	> 100	> 100	> 100	> 100	> 100	–
C[s+]1c2ccccc2c2ccccc21	> 100	> 100	> 100	–	> 100	> 100	> 100	> 100	> 100	–
N#Cc1ccccc1NC(=O)C(=O)C(C(=O)c1ccccc1F)C1OC(=O)c2ccccc21 (stereo not drawn)	> 100	> 100	> 100	> 100	> 100	–	40.8	> 100	37.9	> 100
